# In US20230021483A1, “[…] […] METHOD AND CLASSIFICATION OF PHARMACEUTICAL COMPONENTS BY USING TRANSCRIPTOMES” (National Institutes of Biomedical Innovation, Health and …, priority 2016, published 2023):
# Legend:
# liver (LV) = test: Whole organ transcriptome (GeneChip microarray) of liver 6 h after adjuvant administration: sDEGs, hierarchical clustering; type: in vivo, C57BL/6 mice; details: liver; on adjuvant group (cluster) in LV: key: G1 (interferon signaling); G2 (metabolism of lipids and lipoproteins); G3 (response to stress); G4 (response to wounding); G5 (phosphate-containing compound metabolic process); G6 (phagosome)
# [1] = test system: adjuvant-associated biological themes in LV, SP, LN
# Summary of the method: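 Per-mouse whole-organ transcriptomes; genes with eij/ei(c)>2.0 tested for theme enrichment via TargetMine (GO, KEGG, Reactome, others), Fisher's exact test, Holm-Bonferroni correction. Themes shared by all three mice kept at p<0.05, using the smallest p. Score per adjuvant-associated term = Σ−log(p) of matching themes.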
substance,measurement,setting,value
heptanoyl-γ-D-glutamyl-(L)-meso-diaminopimelyl-(D)-alanine [FK565],adjuvant group (cluster) in LV,liver (LV); hierarchical clustering,G3
same,"Number of gene probes with statistically significant changes (sDEGs), LV, Down","liver (LV); i.d. administration, fold change <0.667, p<0.01, customized PA call=1, 6 h after adjuvant",1972
same,"Number of gene probes with statistically significant changes (sDEGs), LV, Up","liver (LV); i.d. administration, fold change >1.5, p<0.01, customized PA call=1, 6 h after adjuvant",2094
same,"IFN alpha, GO annotation line 1 of 5","[1]; LV, ID",4.54
same,"IFN alpha, GO annotation line 2 of 5","[1]; LV, ID",0
same,IFN alpha: cellular response to interferon-alpha,"[1]; LV, ID",0
same,IFN alpha: positive regulation of interferon-alpha production,"[1]; LV, ID",0
same,IFN alpha: regulation of interferon-alpha production,"[1]; LV, ID",0
same,IFN beta: cellular response to interferon-beta,"[1]; LV, ID",9.65
same,IFN beta: interferon-beta production,"[1]; LV, ID",0
same,IFN beta: positive regulation of interferon-beta production,"[1]; LV, ID",0
same,IFN beta: regulation of interferon-beta production,"[1]; LV, ID",0
same,IFN beta: response to interferon-beta,"[1]; LV, ID",17.3
same,IFN gamma: cellular response to interferon-gamma,"[1]; LV, ID",0
same,IFN gamma: interferon-gamma production,"[1]; LV, ID",0
same,IFN gamma: regulation of interferon-gamma production,"[1]; LV, ID",0
same,IFN gamma: response to interferon-gamma,"[1]; LV, ID",11
same,"NF-kappa B signaling pathway, GO annotation line 1 of 4","[1]; LV, ID",19.8
same,"NF-kappa B signaling pathway, GO annotation line 3 of 4","[1]; LV, ID",3.05
same,"NF-kappa B signaling pathway, GO annotation line 4 of 4","[1]; LV, ID",5.82
same,TNF signaling pathway,"[1]; LV, ID",30.9
same,"adaptive immune response, GO annotation line 1 of 5","[1]; LV, ID",8.99
same,"adaptive immune response, GO annotation line 2 of 5","[1]; LV, ID",8.71
same,"adaptive immune response, GO annotation line 3 of 5","[1]; LV, ID",3.56
same,"adaptive immune response, GO annotation line 4 of 5","[1]; LV, ID",0
same,"adaptive immune response, GO annotation line 5 of 5","[1]; LV, ID",0
same,"apoptosis, GO annotation line 1 of 8","[1]; LV, ID",15.2
same,"apoptosis, GO annotation line 2 of 8","[1]; LV, ID",13
same,"apoptosis, GO annotation line 3 of 8","[1]; LV, ID",19.9
same,"apoptosis, GO annotation line 4 of 8","[1]; LV, ID",13.9
same,"apoptosis, GO annotation line 5 of 8","[1]; LV, ID",6.58
same,"apoptosis, GO annotation line 6 of 8","[1]; LV, ID",13.2
same,"apoptosis, GO annotation line 7 of 8","[1]; LV, ID",0
same,"apoptosis, GO annotation line 8 of 8","[1]; LV, ID",8.33
same,"cell death, GO annotation line 1 of 9","[1]; LV, ID",21.7
same,"cell death, GO annotation line 2 of 9","[1]; LV, ID",16.4
same,"cell death, GO annotation line 3 of 9","[1]; LV, ID",15.7
same,"cell death, GO annotation line 4 of 9","[1]; LV, ID",14
same,"cell death, GO annotation line 5 of 9","[1]; LV, ID",12.9
same,"cell death, GO annotation line 6 of 9","[1]; LV, ID",7.1
same,"cell death, GO annotation line 7 of 9","[1]; LV, ID",7.29
same,"cell death, GO annotation line 8 of 9","[1]; LV, ID",0
same,"cell death, GO annotation line 9 of 9","[1]; LV, ID",0
same,"chemokine, GO annotation line 1 of 4","[1]; LV, ID",0
same,"chemokine, GO annotation line 2 of 4","[1]; LV, ID",0
same,"chemokine, GO annotation line 3 of 4","[1]; LV, ID",0
same,"chemokine, GO annotation line 4 of 4","[1]; LV, ID",0
same,"chemotaxis, GO annotation line 1 of 11","[1]; LV, ID",16.1
same,"chemotaxis, GO annotation line 2 of 11","[1]; LV, ID",0
same,"chemotaxis, GO annotation line 4 of 11","[1]; LV, ID",5.48
same,"chemotaxis, GO annotation line 5 of 11","[1]; LV, ID",0
same,"chemotaxis, GO annotation line 6 of 11","[1]; LV, ID",5.83
same,"chemotaxis, GO annotation line 7 of 11","[1]; LV, ID",6.49
same,"chemotaxis, GO annotation line 8 of 11","[1]; LV, ID",0
same,"chemotaxis, GO annotation line 9 of 11","[1]; LV, ID",0
same,"chemotaxis, GO annotation line 10 of 11","[1]; LV, ID",0
same,"chemotaxis, GO annotation line 11 of 11","[1]; LV, ID",0
same,"cytokine, GO annotation line 1 of 17","[1]; LV, ID",37.8
same,"cytokine, GO annotation line 2 of 17","[1]; LV, ID",32.6
same,"cytokine, GO annotation line 3 of 17","[1]; LV, ID",23.6
same,"cytokine, GO annotation line 4 of 17","[1]; LV, ID",17.1
same,"cytokine, GO annotation line 5 of 17","[1]; LV, ID",30.2
same,"cytokine, GO annotation line 6 of 17","[1]; LV, ID",27.5
same,"cytokine, GO annotation line 7 of 17","[1]; LV, ID",8.69
same,"cytokine, GO annotation line 8 of 17","[1]; LV, ID",16.2
same,"cytokine, GO annotation line 9 of 17","[1]; LV, ID",17
same,"cytokine, GO annotation line 10 of 17","[1]; LV, ID",18.6
same,"cytokine, GO annotation line 11 of 17","[1]; LV, ID",3.46
same,"cytokine, GO annotation line 12 of 17","[1]; LV, ID",14
same,"cytokine, GO annotation line 13 of 17","[1]; LV, ID",7.57
same,"cytokine, GO annotation line 14 of 17","[1]; LV, ID",7.13
same,"cytokine, GO annotation line 15 of 17","[1]; LV, ID",10.1
same,"cytokine, GO annotation line 16 of 17","[1]; LV, ID",0
same,"cytokine, GO annotation line 17 of 17","[1]; LV, ID",0
same,"defense response, GO annotation line 1 of 11","[1]; LV, ID",57.8
same,"defense response, GO annotation line 2 of 11","[1]; LV, ID",29.6
same,"defense response, GO annotation line 3 of 11","[1]; LV, ID",24.9
same,"defense response, GO annotation line 4 of 11","[1]; LV, ID",18.4
same,"defense response, GO annotation line 5 of 11","[1]; LV, ID",5.98
same,"defense response, GO annotation line 6 of 11","[1]; LV, ID",6.22
same,"defense response, GO annotation line 7 of 11","[1]; LV, ID",0
same,"defense response, GO annotation line 8 of 11","[1]; LV, ID",0
same,"defense response, GO annotation line 9 of 11","[1]; LV, ID",0
same,"defense response, GO annotation line 10 of 11","[1]; LV, ID",0
same,"defense response, GO annotation line 11 of 11","[1]; LV, ID",0
same,"immune response, GO annotation line 1 of 8","[1]; LV, ID",46.1
same,"immune response, GO annotation line 2 of 8","[1]; LV, ID",20.8
same,"immune response, GO annotation line 3 of 8","[1]; LV, ID",19.5
same,"immune response, GO annotation line 4 of 8","[1]; LV, ID",11.9
same,"immune response, GO annotation line 5 of 8","[1]; LV, ID",9.97
same,"immune response, GO annotation line 6 of 8","[1]; LV, ID",12.1
same,"immune response, GO annotation line 7 of 8","[1]; LV, ID",0
same,"immune response, GO annotation line 8 of 8","[1]; LV, ID",0
same,"inflammatory response, GO annotation line 1 of 5","[1]; LV, ID",29.8
same,"inflammatory response, GO annotation line 2 of 5","[1]; LV, ID",11.4
same,"inflammatory response, GO annotation line 3 of 5","[1]; LV, ID",3.69
same,"inflammatory response, GO annotation line 4 of 5","[1]; LV, ID",0
same,"inflammatory response, GO annotation line 5 of 5","[1]; LV, ID",0
same,"innate immune response, GO annotation line 1 of 6","[1]; LV, ID",33.7
same,"innate immune response, GO annotation line 2 of 6","[1]; LV, ID",19.7
same,"innate immune response, GO annotation line 3 of 6","[1]; LV, ID",16.7
same,"innate immune response, GO annotation line 4 of 6","[1]; LV, ID",16.2
same,"innate immune response, GO annotation line 5 of 6","[1]; LV, ID",14.3
same,"innate immune response, GO annotation line 6 of 6","[1]; LV, ID",0
same,interleukin-6: interleukin-6 production,"[1]; LV, ID",3.6
same,interleukin-6: positive regulation of interleukin-6 production,"[1]; LV, ID",0
same,interleukin-6: regulation of interleukin-6 production,"[1]; LV, ID",4.17
same,interleukin-12: interleukin-12 production,"[1]; LV, ID",8.76
same,interleukin-12: positive regulation of interleukin-12 production,"[1]; LV, ID",3.24
same,interleukin-12: regulation of interleukin-12 production,"[1]; LV, ID",9.49
same,"migration, GO annotation line 1 of 10","[1]; LV, ID",13.6
same,"migration, GO annotation line 2 of 10","[1]; LV, ID",8.98
same,"migration, GO annotation line 3 of 10","[1]; LV, ID",14.2
same,"migration, GO annotation line 4 of 10","[1]; LV, ID",7.86
same,"migration, GO annotation line 5 of 10","[1]; LV, ID",7.57
same,"migration, GO annotation line 6 of 10","[1]; LV, ID",6.55
same,"migration, GO annotation line 7 of 10","[1]; LV, ID",6.19
same,"migration, GO annotation line 8 of 10","[1]; LV, ID",4.49
same,"migration, GO annotation line 9 of 10","[1]; LV, ID",0
same,"migration, GO annotation line 10 of 10","[1]; LV, ID",0
same,"stress, GO annotation line 1 of 3","[1]; LV, ID",57.7
same,"stress, GO annotation line 2 of 3","[1]; LV, ID",28.5
same,"stress, GO annotation line 3 of 3","[1]; LV, ID",9.02
same,"wounding, GO annotation line 1 of 3","[1]; LV, ID",12.1
same,"wounding, GO annotation line 2 of 3","[1]; LV, ID",12.8
same,"wounding, GO annotation line 3 of 3","[1]; LV, ID",9.45
same,"NF-kappa B signaling pathway, GO annotation line 2 of 4","[1]; mouse, in vivo",12.9
same,"chemotaxis, GO annotation line 3 of 11","[1]; mouse, in vivo",15.7
